Target: T1, CPS1 (Homo sapiens, UniProt P31327)
T1 construct: The full length, human CPS1 gene was cloned into pFastBac HTA; His6 (from the pFastBac HTA vector); made in house; host or cells: SF21 insect cells (baculovirus, Bac-to-bac)
T1 sequence (P31327 39-1500): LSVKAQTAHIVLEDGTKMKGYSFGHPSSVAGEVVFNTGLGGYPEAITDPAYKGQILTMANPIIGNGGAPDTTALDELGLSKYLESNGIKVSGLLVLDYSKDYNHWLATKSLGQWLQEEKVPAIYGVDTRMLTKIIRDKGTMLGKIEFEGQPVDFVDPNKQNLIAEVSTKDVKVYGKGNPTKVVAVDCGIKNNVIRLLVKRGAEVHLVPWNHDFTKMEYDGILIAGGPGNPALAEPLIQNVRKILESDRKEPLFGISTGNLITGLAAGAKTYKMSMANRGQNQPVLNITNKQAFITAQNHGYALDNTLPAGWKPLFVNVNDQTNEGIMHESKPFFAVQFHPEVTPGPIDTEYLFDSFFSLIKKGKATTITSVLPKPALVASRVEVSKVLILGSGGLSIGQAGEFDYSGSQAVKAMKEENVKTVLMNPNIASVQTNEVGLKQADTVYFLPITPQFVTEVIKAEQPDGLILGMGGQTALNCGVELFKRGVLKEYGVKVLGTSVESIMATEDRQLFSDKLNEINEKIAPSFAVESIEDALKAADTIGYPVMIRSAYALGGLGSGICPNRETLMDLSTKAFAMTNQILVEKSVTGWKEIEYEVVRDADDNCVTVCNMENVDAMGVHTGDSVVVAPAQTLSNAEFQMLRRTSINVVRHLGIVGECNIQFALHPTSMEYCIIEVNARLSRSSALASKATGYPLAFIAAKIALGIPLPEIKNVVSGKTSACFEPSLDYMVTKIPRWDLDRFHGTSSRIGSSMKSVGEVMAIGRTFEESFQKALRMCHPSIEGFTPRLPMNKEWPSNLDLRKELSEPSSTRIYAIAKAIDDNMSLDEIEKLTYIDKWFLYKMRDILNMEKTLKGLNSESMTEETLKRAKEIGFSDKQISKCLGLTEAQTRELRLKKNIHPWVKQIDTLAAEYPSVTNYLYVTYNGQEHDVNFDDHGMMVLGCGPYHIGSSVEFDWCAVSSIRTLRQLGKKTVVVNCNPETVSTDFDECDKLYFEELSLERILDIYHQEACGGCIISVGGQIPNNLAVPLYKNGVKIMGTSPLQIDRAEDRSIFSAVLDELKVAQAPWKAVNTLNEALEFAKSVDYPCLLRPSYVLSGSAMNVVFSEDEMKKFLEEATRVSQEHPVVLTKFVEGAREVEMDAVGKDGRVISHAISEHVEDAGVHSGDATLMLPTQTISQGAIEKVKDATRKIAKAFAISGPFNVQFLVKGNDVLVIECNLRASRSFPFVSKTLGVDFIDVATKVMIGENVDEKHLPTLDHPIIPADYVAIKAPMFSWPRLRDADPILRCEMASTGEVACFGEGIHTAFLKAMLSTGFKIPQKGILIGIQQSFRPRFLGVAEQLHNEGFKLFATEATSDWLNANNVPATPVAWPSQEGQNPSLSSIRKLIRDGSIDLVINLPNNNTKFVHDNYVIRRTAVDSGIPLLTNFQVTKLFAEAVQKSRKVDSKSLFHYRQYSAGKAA
Experiment: ADP-Glo endpoint assay measuring the ATPase activity of CPS1
Type: biochemical
Details: geometric mean of a minimum of two values; 50 nM CPS1, 10 μM ATP, 0.2 mM NAG, 60 min at room temperature; read-out: ADPGlo IC50
Experimental: CPS1 was expressed and purified from SF21 insect cells. The full length, human CPS1 gene was cloned into pFastBac HTA and baculovirus was generated using the Bac-to-bac expression system from Invitrogen. P3 virus was used to infect SF21 insect cells at a density of 1.5E6 cells/mL at an MOI of 2. Cells were harvested by centrifugation after 60 hrs and the cell pellet resuspended in lysis buffer (50 mM glycyl glycine pH 7.4, 20 mM KCl, 1 mM TCEP, 10% glycerol and 20 mM imidazole with Roche protease inhibitor tablet) before being lysed with 40 strokes of a Dounce homogenizer on ice. The insoluble fraction of the lysate was then cleared by centrifugation at 30,000 rpm for 30 min. 40 mL of supernatant was mixed with 2 mL of Ni NTA beads for 45 min at 4° C. in a 50 mL conical tube.
The beads were washed with 40 mL of wash buffer (50 mM glycyl glycine pH 7.4, 500 mM NaCl, 1 mM TCEP, 10% glycerol and 50 mM imidazole) by centrifugation and resuspension of the beads three times. Bound CPS1 protein was eluted in 6 mL of elution buffer (50 mM glycyl glycine pH 7.4, 500 mM NaCl, 1 mM TCEP, 10% glycerol and 250 mM imidazole) three times. Elution fractions were combined and concentrated using an Amicon Ultra centrifugation filter with a 10,000 molecular weight cut off. Imidazole was removed by repeated concentration and resuspension in storage buffer in the filter device (50 mM glycyl glycine pH 7.4, 500 mM NaCl, 1 mM TCEP and 20% glycerol). CPS1 was concentrated to a final concentration of ˜3 mg/mL before being aliquoted, flash frozen in liquid nitrogen and stored at −80° C.
CPS1 activity was measured and compounds profiled in an endpoint assay measuring the ATPase activity of CPS1 using the ADP-Glo kit from Promega. 50 nM CPS1 was incubated alone or with varying amounts of tested compound from DMSO stocks in assay buffer (50 mM HEPES pH 7.0, 12.5 mM KHCO3, 1.5 mM (NH4)2SO3, 5 mM MgCl2, 50 mM KCl, 1 mM TCEP, 0.01% TritonX 100, 0.0025% BSA and 0.2 mM NAG) for 20 min in a 3 μL volume in a 384-well plate (Corning Cat#3820). The final concentration of DMSO was 0.04%. The reaction was initiated by the addition of 10 μM ATP, bringing the final volume to 6 μL. After 60 min at room temperature, the reaction was terminated with 3 μL ADP-Glo reagent and incubated at room temperature for 30 min. 3 μL of kinase detection reagent was then added and luminescent signal measured on an Envision plate reader after 30 min.

| Structure (SMILES) | IC50 |
| --- | --- |
| COc1ccc(C(=O)N2[C@H](C)CN(C(=O)c3ccc4c(c3)CCO4)C[C@H]2C)c(F)c1 [Compound 21, ((2R,6R)-4-(2,3-Dihydrobenzofuran-5-carbonyl)-2,6-dimethylpiperazin-1-yl)(2-fluoro-4-methoxyphenyl)methanone] | 7450 nM |
| COc1ccc(C(=O)N2C[C@@H](C)N(C(=O)c3cc(F)c(OC)cc3F)[C@H](C)C2)c(F)c1 [Compound 23, ((3R,5R)-4-(2,5-Difluoro-4-methoxybenzoyl)-3,5-dimethylpiperazin-1-yl)(2-fluoro-4-methoxyphenyl)methanone] | 1190 nM |
| COc1ccc(C(=O)N2C[C@@H](C)N(C(=O)c3c(F)cc(SC)cc3F)[C@H](C)C2)c(F)c1 [Compound 25, ((3R,5R)-4-(2,6-difluoro-4-(methylthio)benzoyl)-3,5-dimethylpiperazin-1-yl)(2-fluoro-4-methoxyphenyl)methanone] | 255 nM |
| COc1ccc(C(=O)N2C[C@@H](C)N(C(=O)c3c(C)cc(OC)cc3F)[C@H](C)C2)c(F)c1 [Compound 28, ((3R,5R)-4-(2-Fluoro-4-methoxy-6-methylbenzoyl)-3,5-dimethylpiperazin-1-yl)(2-fluoro-4-methoxyphenyl)methanone] | 909 nM |
| COc1ccc(C(=O)N2C[C@@H](C)N(C(=O)c3ccc(OC)c(F)c3)[C@H](C)C2)c(F)c1 [Compound 29, ((2R,6R)-4-(2-Fluoro-4-methoxybenzoyl)-2,6-dimethylpiperazin-1-yl)(3-fluoro-4-methoxyphenyl)methanone] | 2300 nM |
| COc1ccc(C(=O)N2C[C@@H](C)N(C(=O)c3ccc(OC)c(F)c3F)[C@H](C)C2)c(F)c1 [Compound 34, ((3R,5R)-4-(2,3-Difluoro-4-methoxybenzoyl)-3,5-dimethylpiperazin-1-yl)(2-fluoro-4-methoxyphenyl)methanone] | 387 nM |
| COc1ccc(C(=O)N2[C@H](C)CN(C(=O)c3ccc4c(c3)NC(=O)CO4)C[C@H]2C)c(F)c1 [Compound 35, 6-((3R,5R)-4-(2-Fluoro-4-methoxybenzoyl)-3,5-dimethylpiperazine-1-carbonyl)-2H-benzo[b][1,4]oxazin-3(4H)-one] | 7970 nM |
| COc1ccc(C(=O)N2[C@H](C)CN(C(=O)c3c[nH]c4c(Cl)cccc34)C[C@H]2C)c(F)c1 [Compound 36, (7-Chloro-1H-indol-3-yl)((3R,5R)-4-(2-fluoro-4-methoxybenzoyl)-3,5-dimethylpiperazin-1-yl)methanone] | 1150 nM |
| COc1ccc(C(=O)N2[C@H](C)CN(C(=O)c3cnc4cc[nH]c4c3)C[C@H]2C)c(F)c1 [Compound 37, ((2R,6R)-2,6-Dimethyl-4-(1H-pyrrolo[3,2-b]pyridine-6-carbonyl)piperazin-1-yl)(2-fluoro-4-methoxyphenyl)methanone] | 2510 nM |
| COc1ccc(C(=O)N2[C@H](C)CN(C(=O)c3ccc4nc[nH]c4c3)C[C@H]2C)c(F)c1 [Compound 38, ((2R,6R)-4-(1H-Benzo[d]imidazole-5-carbonyl)-2,6-dimethylpiperazin-1-yl)(2-fluoro-4-methoxyphenyl)methanone] | 4910 nM |
| COc1ccc(C(=O)N2C[C@@H](C)N(C(=O)c3ccc(-c4cnco4)cc3)[C@H](C)C2)c(F)c1 [Compound 39, ((3R,5R)-3,5-Dimethyl-4-(4-(oxazol-5-yl)benzoyl)piperazin-1-yl)(2-fluoro-4-methoxyphenyl)methanone] | 3580 nM |
| COc1ccc(C(=O)N2C[C@@H](C)N(C(=O)c3ccc(-c4ncc[nH]4)cc3)[C@H](C)C2)c(F)c1 [Compound 40, ((3R,5R)-4-(4-(1H-imidazol-2-yl)benzoyl)-3,5-dimethylpiperazin-1-yl)(2-fluoro-4-methoxyphenyl)methanone] | 7530 nM |

Second part, the molecule after the results:

| IC50 | Structure (SMILES) |
| --- | --- |
| 358 nM | COc1ccc(C(=O)N2C[C@@H](C)N(C(=O)c3ccc(C)cc3F)[C@H](C)C2)c(F)c1 [Compound 22, ((2R,6R)-4-(2-Fluoro-4-methoxybenzoyl)-2,6-dimethylpiperazin-1-yl)(2-fluoro-4-methylphenyl)methanone] |
| 995 nM | COc1ccc(C(=O)N2C[C@@H](C)N(C(=O)c3ccc(OCc4ccccc4)cc3F)[C@H](C)C2)c(F)c1 [Compound 24, ((3R,5R)-4-(4-(Benzyloxy)-2-fluorobenzoyl)-3,5-dimethylpiperazin-1-yl)(2-fluoro-4-methoxyphenyl)methanone] |
| 362 nM | COc1ccc(C(=O)N2C[C@@H](C)N(C(=O)c3ccc(OC)cc3F)[C@H](C)C2)c(F)c1 [Compound 26, ((2R,6R)-2,6-Dimethylpiperazine-1,4-diyl)bis((2-fluoro-4-methoxyphenyl)methanone)] |
| 414 nM | CCOc1ccc(C(=O)N2[C@H](C)CN(C(=O)c3ccc(OC)cc3F)C[C@H]2C)c(F)c1 [Compound 27, ((3R,5R)-4-(4-Ethoxy-2-fluorobenzoyl)-3,5-dimethylpiperazin-1-yl)(2-fluoro-4-methoxyphenyl)methanone] |
| 1470 nM | COc1ccc(C(=O)N2C[C@@H](C)N(C(=O)c3ccc(OC(C)C)cc3F)[C@H](C)C2)c(F)c1 [Compound 30, ((3R,5R)-4-(2-fluoro-4-isopropoxybenzoyl)-3,5-dimethylpiperazin-1-yl)(2-fluoro-4-methoxyphenyl)methanone] |
| 1190 nM | COc1ccc(C(=O)N2C[C@@H](C)N(C(=O)c3ccc(OC(F)(F)F)cc3F)[C@H](C)C2)c(F)c1 [Compound 31, ((3R,5R)-4-(2-fluoro-4-(trifluoromethoxy)benzoyl)-3,5-dimethylpiperazin-1-yl)(2-fluoro-4-methoxyphenyl)methanone] |
| 1440 nM | COc1ccc(C(=O)N2C[C@@H](C)N(C(=O)c3ccc(F)cc3F)[C@H](C)C2)c(F)c1 [Compound 32, ((3R,5R)-4-(2,4-difluorobenzoyl)-3,5-dimethylpiperazin-1-yl)(2-fluoro-4-methoxyphenyl)methanone] |
| 2540 nM | COc1ccc(C(=O)N2C[C@@H](C)N(C(=O)c3ccc(OC(F)F)cc3F)[C@H](C)C2)c(F)c1 [Compound 33, ((3R,5R)-4-(4-(difluoromethoxy)-2-fluorobenzoyl)-3,5-dimethylpiperazin-1-yl)(2-fluoro-4-methoxyphenyl)methanone] |
